Data as given in ChEMBL document CHEMBL1221366, “Pitucamycin: structural merger of a phenoxazinone with an epoxyquinone antibiotic” (J Nat Prod, 2010).
The source made the active and inactive calls. No cut-off for these calls is given here.

Tests used:
K562 = test: Antiproliferative activity against human K562 cells assessed as inhibition of cell growth; format: functional
[1] = Antiproliferative activity against HUVEC assessed as inhibition of cell growth; format: cell-based; details: human, HUVEC cells
THP-1 = test: Antiproliferative activity against human THP1 cells assessed as inhibition of cell growth; format: functional
Raji = test: Antiproliferative activity against human Raji cells assessed as inhibition of cell growth; format: functional
HEK293 = test: Antiproliferative activity against human HEK293 cells assessed as inhibition of cell growth; format: functional
HepG2 = test: Antiproliferative activity against human HepG2 cells assessed as inhibition of cell growth; format: functional
MCF7 = test: Antiproliferative activity against human MCF7 cells assessed as inhibition of cell growth; format: functional
HeLa = test: Cytotoxicity against human HeLa cells; format: functional
Bacillus subtilis = test: Antimicrobial activity against Bacillus subtilis 6633 B1 by agar diffusion assay; format: functional, organism-based
Staphylococcus aureus [2] = test: Antimicrobial activity against Staphylococcus aureus 511 B3 by agar diffusion assay; format: functional, organism-based
Escherichia coli = test: Antimicrobial activity against Escherichia coli 458 B4 by agar diffusion assay; format: functional, organism-based
Pseudomonas aeruginosa = test: Antimicrobial activity against Pseudomonas aeruginosa SG137 B7 by agar diffusion assay; format: functional, organism-based
Staphylococcus aureus [3] = test: Antimicrobial activity against methicillin-resistant Staphylococcus aureus 134/93R9 by agar diffusion assay; format: functional, organism-based
Enterococcus faecalis = test: Antimicrobial activity against vancomycin-resistant Enterococcus faecalis 1528 R10 by agar diffusion assay; format: functional, organism-based
Mycolicibacterium vaccae = test: Antimicrobial activity against Mycobacterium vaccae 10670 M4 by agar diffusion assay; format: functional, organism-based
[4] = tested on: Sporobolomyces salmonicolor; test: Antimicrobial activity against Sporidiobolus salmonicolor 549 H4 by agar diffusion assay; format: functional, organism-based
Candida albicans = test: Antimicrobial activity against Candida albicans H8 by agar diffusion assay; format: functional, organism-based
Penicillium chrysogenum = test: Antimicrobial activity against Penicillium notatum JP36 P1 by agar diffusion assay; format: functional, organism-based

Row | SMILES | GI50 (K562) [µM] | GI50 [1] [µM] | GI50 (THP-1) [µM] | GI50 (Raji) [µM] | GI50 (HEK293) [µM] | GI50 (HepG2) [µM] | GI50 (MCF7) [µM] | CC50 (HeLa) [µM] | Activity (Bacillus subtilis) | Activity (Staphylococcus aureus [2]) | Activity (Escherichia coli) | Activity (Pseudomonas aeruginosa) | Activity (Staphylococcus aureus [3]) | Activity (Enterococcus faecalis) | Activity (Mycolicibacterium vaccae) | Activity [4] | Activity (Candida albicans) | Activity (Penicillium chrysogenum)
1 | O=C(CO)Nc1cc2nc3cc(CO)ccc3oc-2cc1=O [CHANDRANANIMYCIN D] | 16.6 | 5.3 | 27.6 | 9.6 | 10.3 | 6.6 | 1.3 | 90.6 | inactive | inactive | inactive | inactive | inactive | inactive | inactive | inactive | inactive | inactive
2 | CC(=O)N[C@@H](CSc1c2nc3cc(C(=O)O)ccc3oc-2cc(=O)c1N)C(=O)O [GRIXAZONE B] | > 76.4 | > 120 | – | – | – | – | – | > 120 | – | – | – | – | – | – | – | – | – | –
3 | NC(=O)C1=C(N)[C@@H](O)[C@H](O)[C@@H](Nc2cc3nc4cc(CO)ccc4oc-3cc2=O)C1=O [PITUCAMYCIN] | 27.6 | 36.6 | – | – | – | – | – | 74.8 | inactive | inactive | inactive | inactive | inactive | inactive | inactive | inactive | inactive | inactive
